# Experimental data reported in article PMC5908160, “Inhibition of sperm motility in male macaques with EP055, a potential non-hormonal male contraceptive” (PLoS ONE, 2018).
# Assay: Blood constituents and health monitoring in rhesus males after EP055 infusion
# Assay type: in vivo, Macaca mulatta
# Set-up: Hematocrit: unit not given here
# Conditions: post low dose 75–80 mg/kg
# Excerpt: The physical and behavioral condition of animals are monitored daily at ONPRC. Additional monitoring by Division of Comparative Medicine and/or clinical veterinary staff was provided immediately, at 1 hr, 2 hr and 6 hr post-administration of the contraceptive compound, and daily for up to 30 days after the final drug injection. Criteria used to assess animal health and welfare include: stool and urine quality and quantity, appetite and attitude (bright and alert, quiet, lethargic), pain (not eating, not moving, hunched over, lethargy/disinterest), vomiting, diarrhea, nausea, dehydration (unkempt coat, lack of urine production), and signs of wounds of injury. In addition, the ONPRC Standardized Pain Scoring system is used post-surgically to monitor an animal’s progress and improvement over time. Major criteria include animal appearance, posture, activity (including stool and urine production), vocalization and atypical behaviors.
# Prior to infusion of EP055, each male was sedated with ketamine by the surgical staff at ONPRC and transported to the operating room. After positioning in dorsal recumbency, the male was intubated and placed under inhalant (isoflurane) anesthesia. Bilateral intravenous catheters were placed in cephalic veins, one for infusion and one for back-up. A percutaneous arterial line was placed in the right femoral artery for direct blood pressure measurement. Invasive blood pressure, heart rate, SpO2, and respirations were monitored by the surgical staff throughout the procedure. Initially, the low doses of EP055 in 5% DMSO-PBS 7.6 was infused by i.v. at 75-80 mg/kg, using a Medfusion 3500 pump (Smiths Medical, St. Paul, MN), and was started at a low flow rate ([…]). In 3 of 4 males, a 5-10% increase in blood pressure and heart rate were noted within the first 2-3 minutes of infusion of EP055. In these cases, the infusion was temporarily suspended until these parameters subsequently declined to normal. The infusion rate was then doubled to 1.2 ml/kg/min after 5-10 minutes and the final volume of EP055 infusate was administered. Blood pressure and heart rate remained normal throughout the rest of the infusion interval. The total volume of EP055 infusate ranged from 72 ml – 136 ml, depending upon the weight of the animal, and the duration of infusion was 10-13 minutes. Following completion of the infusion, all animals recovered normally. Animals were monitored by clinical veterinary staff immediately, at 1 hr, 2 hr and 6-8 hr post-infusion, and daily for up to 30 days after the final infusion of EP055. […] Two weeks after the infusion of the low dose and collection of the next set of baseline semen samples, males were infused with the high dose of EP055 (125-130 mg/kg) as described above, and monitored similarly.
# Blood was collected from the brachial vein at the time of each semen collection, and used to determine complete blood counts and serum biochemistry tests (including electrolytes, glucose, lipids, proteins, enzymes and metabolic by-products) as performed in the Clinical Pathology Laboratory in the Division of Comparative Medicine at ONPRC.
smiles,measurement,setting,value
COC(=O)NNc1nc(Nc2ccc(NC(C)=O)c(O)c2)nc(SCC(=O)O)n1 [EP055],GGT,6-8 hrs,70.5 ± 2.1- U/l
same,GLUC,6-8 hrs,89.0 ± 6.7 mg/dL
same,Hematocrit,6-8 hrs,44.3 ± 1.0
same,Hemoglobin,6-8 hrs,14.4 ± 0.3 g/dL
same,Leukocytes,6-8 hrs,12.8 ± 2.7 x 10^3/mm^3
same,Lymphocytes,6-8 hrs,18.8 ± 1.9%
same,MCH,6-8 hrs,24.5 ± 0.3 pg/cell
same,MCHC,6-8 hrs,32.6 ± 0.1 g/dL
same,MCV,6-8 hrs,75.1 ± 1.2 fl/cell
same,Magnesium,6-8 hrs,1.8 ± 0.0 mg/dL
same,Monocytes,6-8 hrs,4.9 ± 0.1%
same,Neutrophils,6-8 hrs,9.5 ± 2.0 x 10^3/mm^3
same,Phosphorus,6-8 hrs,5.3 ± 0.3 mg/dL
same,Platelets,6-8 hrs,268.5 ± 38.7 x 10^6
same,Potassium,6-8 hrs,3.9 ± 0.2 mEq/l
same,Sodium,6-8 hrs,149.0 ± 0.9 mEq/l
same,Total Bilirubin,6-8 hrs,0.2 ± 0.1 mg/dL
same,Total Protein,6-8 hrs,7.5 ± 0.0 g/dL
same,Triglycerides,6-8 hrs,63.8 ± 5.7 mg/dL
same,ALT,28-30 hrs,54.3 ± 3.8 U/l
same,AST,28-30 hrs,51.0 ± 6.6 U/l
same,Albumin,28-30 hrs,4.8 ± 0.1 g/dL
same,Alkaline Phosphatase,28-30 hrs,128.5 ± 12.5 U/l
same,BUN,28-30 hrs,15.0 ± 1.5 mg/dL
same,Basophils,28-30 hrs,0.6 ± 0.1%
same,CREAT,28-30 hrs,1.0 ± 0.0 mg/dL
same,Chloride,28-30 hrs,110.3 ± 0.9 mEq/l
same,Cholesterol,28-30 hrs,149.5 ± 19.5 mg/dL
same,Eosinophils,28-30 hrs,1.4 ± 0.1%
same,Erythrocytes,28-30 hrs,5.9 ± 0.3 x 10^6/mm^3
same,GGT,28-30 hrs,72.5 ± 3.9 U/l
same,GLUC,28-30 hrs,90.0 ± 10.3 mg/dL
same,Hematocrit,28-30 hrs,43.9 ± 1.9
same,Hemoglobin,28-30 hrs,14.4 ± 0.7 g/dL
same,Leukocytes,28-30 hrs,11.8 ± 3.1 x 10^3/mm^3
same,Lymphocytes,28-30 hrs,31.1 ± 4.8%
same,MCH,28-30 hrs,24.4 ± 0.2 pg/cell
same,MCHC,28-30 hrs,32.7 ± 0.3 g/dL
same,MCV,28-30 hrs,74.7 ± 1.0 fl/cell
same,Magnesium,28-30 hrs,1.7 ± 0.1 mg/dL
same,Monocytes,28-30 hrs,5.7 ± 0.3%
same,Neutrophils,28-30 hrs,7.2 ± 2.0 x 10^3/mm^3
same,Phosphorus,28-30 hrs,4.0 ± 0.5 mg/dL
same,Platelets,28-30 hrs,185.8 ± 35.8 x 10^6
same,Potassium,28-30 hrs,4.2 ± 0.2 mEq/l
same,Sodium,28-30 hrs,149.0 ± 1.1 mEq/l
same,Total Bilirubin,28-30 hrs,0.2 ± 0.0 mg/dL
same,Total Protein,28-30 hrs,7.7 ± 0.2 g/dL
same,Triglycerides,28-30 hrs,75.3 ± 28.9 mg/dL
same,ALT,78 hrs,60.3 ± 12.2 U/l
same,AST,78 hrs,73.8 ± 33.6 U/l
same,Albumin,78 hrs,4.7 ± 0.1 g/dL
same,Alkaline Phosphatase,78 hrs,125.3 ± 16.3 U/l
same,BUN,78 hrs,18.8 ± 3.2 mg/dL
same,Basophils,78 hrs,0.6 ± 0.1%
same,CREAT,78 hrs,1.0 ± 0.0 mg/dL
same,Chloride,78 hrs,108.0 ± 0.8 mEq/l
same,Cholesterol,78 hrs,144.0 ± 17.0 mg/dL
same,Eosinophils,78 hrs,2.0 ± 0.5%
same,Erythrocytes,78 hrs,5.5 ± 0.2 x 10^6/mm^3
same,GGT,78 hrs,65.3 ± 2.7 U/l
same,GLUC,78 hrs,91.5 ± 7.4 mg/dL
same,Hematocrit,78 hrs,40.6 ± 0.8
same,Hemoglobin,78 hrs,13.3 ± 0.3 g/dL
same,Leukocytes,78 hrs,11.2 ± 3.3 x 10^3/mm^3
same,Lymphocytes,78 hrs,33.7 ± 5.0%
same,MCH,78 hrs,24.5 ± 0.3 pg/cell
same,MCHC,78 hrs,32.8 ± 0.1 g/dL
same,MCV,78 hrs,74.6 ± 1.2 fl/cell
same,Magnesium,78 hrs,1.8 ± 0.0 mg/dL
same,Monocytes,78 hrs,5.5 ± 0.5%
same,Neutrophils,78 hrs,6.6 ± 2.2 x 10^3/mm^3
same,Phosphorus,78 hrs,4.1 ± 0.6 mg/dL
same,Platelets,78 hrs,270.8 ± 25.8 x 10^6
same,Potassium,78 hrs,4.0 ± 0.1 mEq/l
same,Sodium,78 hrs,147.0 ± 1.2 mEq/l
same,Total Bilirubin,78 hrs,0.2 ± 0.0 mg/dL
same,Total Protein,78 hrs,7.6 ± 0.1 g/dL
same,Triglycerides,78 hrs,57.3 ± 14.1 mg/dL
same,ALT,Recovery,31.7 ± 2.3 U/l
same,AST,Recovery,42.3 ± 2.6 U/l
same,Albumin,Recovery,4.3 ± 0.1 g/dL
same,Alkaline Phosphatase,Recovery,79.0 ± 2.3 U/l
same,BUN,Recovery,16.5 ± 1.9 mg/dL
same,Basophils,Recovery,0.5 ± 0.1%
same,CREAT,Recovery,0.8 ± 0.0 mg/dL
same,Chloride,Recovery,107.0 ± 0.0 mEq/l
same,Cholesterol,Recovery,138.7 ± 19.3 mg/dL
same,Eosinophils,Recovery,1.4 ± 0.3%
same,Erythrocytes,Recovery,5.7 ± 0.2- x 10^6/mm^3
same,GGT,Recovery,62.3 ± 1.8 U/l
same,GLUC,Recovery,58.3 ± 4.5 mg/dL
same,Hematocrit,Recovery,42.4 ± 1.1
same,Hemoglobin,Recovery,13.8 ± 0.4 g/dL
same,Leukocytes,Recovery,5.9 ± 1.0 x 10^3/mm^3
same,Lymphocytes,Recovery,44.8 ± 5.4%
same,MCH,Recovery,24.1 ± 0.4 pg/cell
same,MCHC,Recovery,32.5 ± 0.2 g/dL
same,MCV,Recovery,74.1 ± 0.9 fl/cell
same,Magnesium,Recovery,1.9 ± 0.1 mg/dL
same,Monocytes,Recovery,6.4 ± 0.2%
same,Neutrophils,Recovery,4.5 ± 1.7 x 10^3/mm^3
same,Phosphorus,Recovery,5.1 ± 0.2 mg/dL
same,Platelets,Recovery,295.7 ± 11.8 x 10^6
same,Potassium,Recovery,4.0 ± 0.1 mEq/l
same,Sodium,Recovery,146.7 ± 0.3 mEq/l
same,Total Bilirubin,Recovery,0.2 ± 0.0 mg/dL
same,Total Protein,Recovery,7.1 ± 0.1 g/dL
same,Triglycerides,Recovery,38.0 ± 6.9 mg/dL
